Laboratory results taken from patent US12305226B2, “Barcoded protein array for multiplex single-molecule interaction profiling” (President and Fellows of Harvard College, priority 2014, dated 2025).

Target: ADRB2 (Homo sapiens, UniProt P07550)
Conditions: 100 μM compound, 5 nM barcoded β-arr2, GRK2
Procedure: A compound library could be screened in multi-well plates, and in each well, one compound was assayed with many barcoded GPCRs and a β-arrestin-2 (β-arr2) protein bearing a well-position-associated barcode (FIG. 3C). All the samples were pooled and deposited on one slide, and the interaction of a GPCR with a compound was detected by the increased GPCR polony co-localization with the corresponding β-arr2 polonies. […] The co-localization ratios were measured at 50 imaging positions on the array for statistical analysis.
A GPCR-β-arr2 binding assay was performed by mixing a ligand with ˜1 nM GPCR-nanodisc complexes in an assay buffer A2 (20 mM HEPES, pH 7.5, 50 mM KOAc, 2 mM EDTA and 5 mM MgCl2), followed by addition of 10 nM GRK2 (Life Technologies), 0.1 mM ATP, 10 nM G protein β1γ2 subunits (KeraFAST) and 5 nM barcoded β-arr2 in a total volume of 25 μL. Compounds were assayed in parallel using a multi-well plate, and the reactions were incubated at 30° C. for 30 min. Similarly as described above, GPCR-β-arr2 complexes were crosslinked and both crosslinked and free GPCRs were purified from the reactions with the anti-HA magnetic beads. Proteins were pooled and analyzed on a single array.

Chain of ADRB2 (P07550 whole entry): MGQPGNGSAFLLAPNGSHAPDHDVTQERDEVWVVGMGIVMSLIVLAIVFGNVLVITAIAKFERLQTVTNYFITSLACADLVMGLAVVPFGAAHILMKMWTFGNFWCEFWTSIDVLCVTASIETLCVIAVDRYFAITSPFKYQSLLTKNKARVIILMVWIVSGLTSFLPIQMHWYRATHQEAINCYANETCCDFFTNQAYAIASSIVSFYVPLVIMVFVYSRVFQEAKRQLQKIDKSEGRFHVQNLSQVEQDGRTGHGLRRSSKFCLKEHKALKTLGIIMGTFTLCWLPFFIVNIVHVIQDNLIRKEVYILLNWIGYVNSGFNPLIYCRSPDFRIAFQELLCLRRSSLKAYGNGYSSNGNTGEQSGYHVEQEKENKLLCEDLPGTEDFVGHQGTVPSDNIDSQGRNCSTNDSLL

## CC(C)NCC(O)COc1cccc2[nH]ccc12 (stereo not shown) [pindolol]
  agonist type identified by polony co-localization ratios: partial
